Results from patent US20180263909A1, “DUAL LOADED LIPOSOMAL NANOPARTICLES” (priority 2015, published 2018).

Legend:
[1] = test system: MM.1S cells; assay: Cytotoxicity (Cell Counting Kit-8) and Chou-Talalay synergy analysis, MM.1S; assay type: cell-based; details: 25 nM of each drug, 48 h
Experimental: (§1) Cytotoxicity and Synergy Analysis. 2×10^5 cells/well were plated in a 96-well dish 16 h prior to the experiment. Cells were treated with respective cytotoxic agents at varying concentrations. Cytotoxicity was assessed at 48 h using Cell Counting Kit-8 Reagent (Dojindo Molecular Technologies, Rockville, Mass.).

[2] = test system: NCI-H929 cells; details: 25 nM of each drug, 48 h
Experimental: as §1

SMILES: CC(C)C[C@H](NC(=O)[C@H](CCc1ccccc1)NC(=O)CN1CCOCC1)C(=O)N[C@@H](Cc1ccccc1)C(=O)N[C@@H](CC(C)C)C(=O)[C@@]1(C)CO1 [carfilzomib]
- cytotoxicity [1]: minimal cytotoxicity
- cytotoxicity [2]: minimal cytotoxicity
